The record followed here is US20240166647A1, “Cereblon Ligands” (THE REGENTS OF THE UNIVERSITY OF MICHIGAN, priority 2021, published 2024).

What is called IC50 is the concentration needed to halve the response being measured. Low readings indicate greater potency, high ones weaker potency.

In this assay the target is T1, GST-tagged wild-type human CRBN protein (Homo sapiens, UniProt Q96SW2).
T1 construct: purchased Cisbio 64BDCRBNPEG
T1 sequence (Q96SW2 whole entry): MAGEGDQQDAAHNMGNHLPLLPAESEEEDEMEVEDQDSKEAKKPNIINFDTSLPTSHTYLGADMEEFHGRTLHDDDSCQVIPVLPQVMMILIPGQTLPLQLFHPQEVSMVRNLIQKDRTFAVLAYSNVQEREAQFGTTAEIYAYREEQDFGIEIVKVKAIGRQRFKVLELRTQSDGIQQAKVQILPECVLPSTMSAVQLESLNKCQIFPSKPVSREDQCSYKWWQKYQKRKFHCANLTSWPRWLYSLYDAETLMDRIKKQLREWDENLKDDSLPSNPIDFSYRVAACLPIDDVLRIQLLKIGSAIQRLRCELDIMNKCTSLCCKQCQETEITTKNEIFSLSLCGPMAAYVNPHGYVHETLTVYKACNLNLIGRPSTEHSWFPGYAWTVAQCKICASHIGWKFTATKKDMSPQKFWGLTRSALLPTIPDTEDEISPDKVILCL
The assay can be described thus: Cereblon Binding Assay (Cisbio Cereblon Binding Kit, TR-FRET). Conditions: TR-FRET competition with XL665-labelled Thalidomide, room temperature about 3 hours. As to the method: In some embodiments, the biological assay may involve evaluation of CRBN binding activity, e.g., in Cereblon Binding Kit (Cisbio, #64BDCRBNPEG).
In some embodiments, the cell line is maintained and cultured, e.g., at room temperature for about 3 hours.
In some embodiments, the Fluorescence Resonance Energy Transfer (TR-FRET) measurements of the cell line is recorded and evaluated.
Procedure for Cereblon Binding Assay. The binding to cereblon (CRBN) was determined using the Cereblon Binding Kit (Cisbio, #64BDCRBNPEG) following the manufacturer's instruction. Briefly, serially diluted compounds were incubated with GST-tagged wild-type human CRBN protein, XL665-labelled Thalidomide and Europium Cryptate labelled GST antibody at room temperature for about 3 hours. […] The readings were normalized to the control (0.5%) and the ICso was calculated by nonlinear regression (four parameters sigmoid fitted with variable slope) analysis using the GraphPad Prism 8 software.
On the technique in general: Time-resolved FRET reads energy transfer from a long-lived donor to a nearby acceptor.
In turn, `O=C1CCC(N2C(=O)c3cc4c(cc3C2=O)CN(Cc2cccc3c2OCCO3)C4)C(=O)N1` (stereo not shown) [Example 224] registered a concentration for half-maximal inhibition (IC50) of under 500 nM. To `CC(C)(C)OC(=O)N1CCC(F)(CN2Cc3cc4c(cc3C2)C(=O)N(C2CCC(=O)NC2=O)C4=O)CC1` (stereo not shown) [Example 270] belongs 500 to 1000 nM; to `O=C(O)CCCN1Cc2cc3c(cc2C1)C(=O)N(C1CCC(=O)NC1=O)C3=O` (stereo not shown) [Example 240], under 500 nM; to `O=C1CCC(N2C(=O)c3ccc4c(c3C2=O)CNCC4)C(=O)N1` (stereo not shown) [Example 255], 1000 to 10000 nM.

In turn, `O=C1CCC(N2Cc3cc4c(cc3C2=O)CN(C(=O)c2cccc3c2CCC3)C4)C(=O)N1` (stereo not shown) [Example 225] displayed an IC50 of under 500 nM. The compound `O=C1CCC(N2C(=O)c3cc4c(cc3C2=O)CN(C2CCC3(CCNCC3)CC2)C4)C(=O)N1` (stereo not shown) [Example 266] showed an IC50 of under 500 nM. Consider `CC(=O)N1CC(N2Cc3cc4c(cc3C2=O)CN(C2CCC(=O)NC2=O)C4=O)C1` (stereo not shown) [Example 233], for which the IC50 is 1000 to 10000 nM.

Compound `O=C(O)CN1Cc2cc3c(cc2C1)C(=O)N(C1CCC(=O)NC1=O)C3` (stereo not shown) [Example 237] showed an IC50 of under 500 nM. To `O=C1CCC(N2C(=O)c3cc4c(cc3C2=O)CN(CC2CN(c3ccc(C(=O)O)cc3)C2)C4)C(=O)N1` (stereo not shown) [Example 271] belongs under 500 nM; to `O=C(O)CCN1Cc2cc3c(cc2C1)C(=O)N(C1CCC(=O)NC1=O)C3=O` (stereo not shown) [Example 239], under 500 nM. In the case of `CNC1CCC(N2Cc3cc4c(cc3C2)C(=O)N(C2CCC(=O)NC2=O)C4=O)CC1` (stereo not shown) [Example 244], the IC50 is under 500 nM. The compound `O=C1CCC(N2Cc3cc4c(cc3C2=O)CN(C2CCNCC2)C4=O)C(=O)N1` (stereo not shown) [Example 256] returned an IC50 of under 500 nM.

`O=C1CCC(N2C(=O)c3cc4c(cc3C2=O)CC2(CNC2)C4)C(=O)N1` (stereo not shown) [Example 217] showed an IC50 of over 10000 nM. In turn, `O=C(O)CN1Cc2cc3c(cc2C1)C(=O)N(C1CCC(=O)NC1=O)C3=O` (stereo not shown) [Example 236] came in with an IC50 of under 500 nM.

In turn, `O=C1CCC(N2C(=O)c3cc4c(cc3C2=O)CN(C2CCNC2)C4)C(=O)N1` (stereo not shown) [Example 264] had an IC50 of under 500 nM.

As to `O=C1CCC(N2C(=O)c3cc4c(cc3C2=O)CN(C2CCNCC2)C4)C(=O)N1` (stereo not shown) [Example 265], the IC50 was 500 to 1000 nM. For the compound `O=C1CCC(N2C(=O)c3cc4c(cc3C2=O)CN(Cc2cnc(Cl)nc2)C4)C(=O)N1` (stereo not shown) [Example 246], the IC50 lay in the range of 1000 to 10000 nM.

The compound `O=C1CCC(N2C(=O)c3ccc4c(c3C2=O)CNC4)C(=O)N1` (stereo not shown) [Example 219] came in with an IC50 of 1000 to 10000 nM. To `O=C1CCC(N2C(=O)c3cc4c(cc3C2=O)CN(CC2CCN(c3ccc(C(=O)O)cc3)CC2)C4)C(=O)N1` (stereo not shown) [Example 272] belongs under 500 nM; to `O=C1CCC(N2C(=O)c3cc4c(cc3C2=O)CCNCC4)C(=O)N1` (stereo not shown) [Example 257], 1000 to 10000 nM.

Regarding `O=C1CCC(N2Cc3cc4c(cc3C2=O)CN(C(=O)c2cccc3c2OCO3)C4)C(=O)N1` (stereo not shown) [Example 226], the IC50 was under 500 nM. Compound `CCN1CC(N2Cc3cc4c(cc3C2=O)CN(C2CCC(=O)NC2=O)C4=O)C1` (stereo not shown) [Example 232] came in with an IC50 of 500 to 1000 nM. `O=C1CCC(N2Cc3cc4c(cc3C2)C(=O)N(C2CCC(=O)NC2=O)C4)CC1` (stereo not shown) [Example 249]: the IC50 was in the range of 500 to 1000 nM. To `O=C1CCC(N2C(=O)c3cc4c(cc3C2=O)CN(Cc2ccc(C(F)(F)F)cc2)CCC4)C(=O)N1` (stereo not shown) [Example 227] belongs 500 to 1000 nM; to `O=C1CCC(N2C(=O)c3cc4c(cc3C2=O)CN([C@H]2C[C@H](C(=O)O)C2)C4)C(=O)N1` (stereo partly shown) [Example 259], 500 to 1000 nM.

The compound `COc1c2c(cc3c1C(=O)N(C1CCC(=O)NC1=O)C3=O)CN(CC1CN(Cc3ccc(F)cc3Cl)C1)C2` (stereo not shown) [Example 234] gave an IC50 of 500 to 1000 nM. `O=C(O)CCN1CCc2cc3c(cc2C1)C(=O)N(C1CCC(=O)NC1=O)C3=O` (stereo not shown) [Example 241] came in with an IC50 of 500 to 1000 nM.

As to `O=C1CCC(N2C(=O)c3cc4c(cc3C2=O)CN(C2CC3(CCNCC3)C2)C4)C(=O)N1` (stereo not shown) [Example 261], the IC50 lay within 1000 to 10000 nM. Consider `O=C1CCC(N2Cc3cc4c(cc3C2=O)CN(CC2CCNCC2)C4)C(=O)N1` (stereo not shown) [Example 263], for which the IC50 was in the range of 500 to 1000 nM. For the compound `CC1(CN2Cc3cc4c(cc3C2)C(=O)N(C2CCC(=O)NC2=O)C4=O)CCN(C(=O)OC(C)(C)C)CC1` (stereo not shown) [Example 269], the IC50 was under 500 nM. To `O=C1CCC(C(=O)N2Cc3cc4c(cc3C2)C(=O)N(C2CCC(=O)NC2=O)C4=O)CC1` (stereo not shown) [Example 252] belongs under 500 nM; to `COc1c2c(cc3c1CN(C1CCC(=O)NC1=O)C3=O)CN(Cc1ccccc1)C2` (stereo not shown) [Example 220], under 500 nM. To `O=C1CCC(N2C(=O)c3cc4c(cc3C2=O)CCN(Cc2ccc(F)cc2)CC4)C(=O)N1` (stereo not shown) [Example 223] belongs 1000 to 10000 nM; to `COC1(CN2Cc3cc4c(cc3C2)C(=O)N(C2CCC(=O)NC2=O)C4=O)CCN(C(=O)OC(C)(C)C)CC1` (stereo not shown) [Example 268], 500 to 1000 nM; to `O=C1CCC(N2Cc3cc4c(cc3C2=O)CN(CC2CN(Cc3ccc(F)c(F)c3)C2)C4=O)C(=O)N1` (stereo not shown) [Example 231], 500 to 1000 nM.

On to `O=C1CCC(N2C(=O)c3cc4c(cc3C2=O)CNCC4)C(=O)N1` (stereo not shown) [Example 258], for which the IC50 was in the range of 1000 to 10000 nM.

Consider `O=C1CCC(N2C(=O)c3cc4c(cc3C2=O)CN(C2CCC(C(=O)O)CC2)C4)C(=O)N1` (stereo not shown) [Example 251], for which the half-maximal inhibitory concentration (IC50) fell in the range of 500 to 1000 nM. Compound `O=C1CCC(N2C(=O)c3cc4c(cc3C2=O)CN(Cc2ccc(F)cc2)CC4)C(=O)N1` (stereo not shown) [Example 221] came in with an IC50 of 500 to 1000 nM.

`O=C1CCC(N2C(=O)c3cc4c(cc3C2=O)CN(C(=O)C2CCC3(CCNCC3)CC2)C4)C(=O)N1` (stereo not shown) [Example 250] returned an IC50 of under 500 nM.

Compound `O=C1CCC(N2Cc3cc4c(cc3C2=O)CN(C(=O)C2CCNCC2)C4)C(=O)N1` (stereo not shown) [Example 254] registered an IC50 of under 500 nM. To `NC1CCC(N2Cc3cc4c(cc3C2)C(=O)N(C2CCC(=O)NC2=O)C4=O)CC1` (stereo not shown) [Example 248] belongs under 500 nM. Compound `COc1c2c(cc3c1CN(C1CCC(=O)NC1=O)C3=O)CNC2` (stereo not shown) [Example 275] displayed an IC50 of 500 to 1000 nM. To `O=C1CCC(N2C(=O)c3cc4c(cc3C2=O)CC(CN2CCC(Cc3ccc(F)cc3)CC2)C4)C(=O)N1` (stereo not shown) [Example 228] belongs under 500 nM; to `O=C1CCC(N2Cc3cc4c(cc3C2=O)CN(C2CCNCC2)C4)C(=O)N1` (stereo not shown) [Example 267], 1000 to 10000 nM. To `O=C(O)CN1CCc2cc3c(cc2C1)C(=O)N(C1CCC(=O)NC1=O)C3=O` (stereo not shown) [Example 238] belongs 1000 to 10000 nM; to `O=C1CCC(N2Cc3cc4c(cc3C2)C(=O)N(C2CCC(=O)NC2=O)C4=O)CC1` (stereo not shown) [Example 247], 500 to 1000 nM; to `O=C1CCC(N2Cc3cc4c(cc3C2=O)CN(C2CN(Cc3ccc(F)c(F)c3)C2)C4=O)C(=O)N1` (stereo not shown) [Example 230], 500 to 1000 nM. To `O=C1CCC(N2Cc3cc4c(cc3C2=O)CC2(C4)CN(Cc3ccc(F)cc3)C2)C(=O)N1` (stereo not shown) [Example 235] belongs 500 to 1000 nM; to `O=C(O)CN1CCc2cc3c(cc2CC1)C(=O)N(C1CCC(=O)NC1=O)C3=O` (stereo not shown) [Example 243], 500 to 1000 nM; to `O=C1CCC(N2C(=O)c3cc4c(cc3C2=O)CN(C2CNC2)C4)C(=O)N1` (stereo not shown) [Example 260], under 500 nM. In the case of `O=C1CCC(N2C(=O)c3cc4c(cc3C2=O)CC(CN2CC3(CN(Cc5ccc(F)cc5)C3)C2)C4)C(=O)N1` (stereo not shown) [Example 229], the IC50 fell in the range of 500 to 1000 nM.

`O=C1CCC(N2C(=O)c3cc4c(cc3C2=O)CN(C(=O)C2CCNCC2)C4)C(=O)N1` (stereo not shown) [Example 253] registered an IC50 of under 500 nM.

`O=C1CCC(N2C(=O)c3cc4c(cc3C2=O)CN(Cc2ccc(F)nc2)C4)C(=O)N1` (stereo not shown) [Example 245] had an IC50 of under 500 nM.

For `O=C(O)CCCN1CCc2cc3c(cc2C1)C(=O)N(C1CCC(=O)NC1=O)C3=O` (stereo not shown) [Example 242], the IC50 was 1000 to 10000 nM. To `O=C1CCC(N2C(=O)c3cc4c(cc3C2=O)CN(C2CCCC23CCNCC3)C4)C(=O)N1` (stereo not shown) [Example 262] belongs 1000 to 10000 nM. On to `O=C1CCC(N2Cc3cc4c(cc3C2=O)CC2(CNC2)C4)C(=O)N1` (stereo not shown) [Example 218], for which the IC50 lay within 1000 to 10000 nM. Regarding `O=C1CCC(N2Cc3cc4c(cc3C2=O)CNC4)C(=O)N1` (stereo not shown) [Example 274], the IC50 fell in the range of 1000 to 10000 nM. To `O=C1CCC(N2Cc3cc4c(cc3C2=O)CN(Cc2ccc(F)cc2)C4)C(=O)N1` (stereo not shown) [Example 222] belongs under 500 nM.
